Legend:
[1] = test system: MCF7 (human breast adenocarcinoma) cells; assay: MTT cytotoxicity assay, MCF7; assay type: cell-based; settings: Homo sapiens, MCF7, mean ± SD of triplicate
Description: (§1) The cytotoxicity of the synthesised quinazolin-4(3H)-ones was evaluated by MTT assay, as previously described. Two cancer cell lines, MCF7 (human breast adenocarcinoma) and A2780 (human ovary adenocarcinoma), were used in this study, which were obtained from the ATCC (Rockville, MD, USA). […] Additionally, compounds were prepared at the same medium to obtain serial dilutions (50, 25, […] and 0.1 µM). […] The media were aspirated, and the formazan crystals were solubilised by adding 150 µL DMSO. Absorbance was read on a multi-plate reader (BioRad) at […]. […] The data were obtained from triplicates and analysed using statistical software.

[2] = test system: A2780 (human ovary adenocarcinoma) cells; assay: MTT cytotoxicity assay, A2780; assay type: cell-based; settings: Homo sapiens, A2780, mean ± SD of triplicate
Description: as §1

[3] = target: T1, CDK2/CyclinA2 (Homo sapiens, UniProt P24941); assay: CDK2 Assay Kit, Kinase-Glo MAX luminescence; assay type: biochemical; settings: one experimental data
T1 construct: purchased #79599
Description: The CDK2 Assay Kit is designed to measure CDK2/CyclinA2 activity for screening and profiling applications, using Kinase-Glo® MAX as a detection reagent. The CDK2 Assay Kit comes in a convenient 96-well format, with enough purified recombinant CDK2/CyclinA2 enzyme, CDK substrate peptide, ATP and kinase assay buffer for 100 enzyme reactions. […] […] The compounds were diluted in 10% DMSO and 5 μl of the dilution was added to a 50 μl reaction so that the final concentration of DMSO was 1% in all of the reactions. All of the enzymatic reactions were conducted at 30 °C for 40 min. The 50 μl reaction mixture contained 40 mM Tris, pH 7.4, 10 mM MgCl2, 0.1 mg/mL BSA, 1 mM DTT, 10 mM ATP, Kinase substrate and the enzyme (CDK2/CyclinA2). After the enzymatic reaction, 50 μl of Kinase-Glo® MAX Luminescence kinase assay solution was added to each reaction and the plates were incubated for 5 min at room temperature. Luminescence signal was measured using a Bio Tek Synergy 2 microplate reader.
Figure S1. Calculation of the IC20 Values of Protein Kinase Enzyme CDK2 for 2f
* All the kinase IC20 (µM) were calculated according to the above equations.
(1 picture or pasted object on this page, not shown here)

[4] = target: T2, HER2 (Homo sapiens, UniProt P04626); assay: HER2 kinase assay kit, Kinase-Glo MAX luminescence; assay type: biochemical; settings: for inhibition at 0.01 µM / inhibition at 0.1 µM / inhibition at 1 µM / inhibition at 10 µM: one experimental data; for IC50: mean ± SD of triplicate
T2 construct: purchased #40721
T2 sequence (P04626 23-1255): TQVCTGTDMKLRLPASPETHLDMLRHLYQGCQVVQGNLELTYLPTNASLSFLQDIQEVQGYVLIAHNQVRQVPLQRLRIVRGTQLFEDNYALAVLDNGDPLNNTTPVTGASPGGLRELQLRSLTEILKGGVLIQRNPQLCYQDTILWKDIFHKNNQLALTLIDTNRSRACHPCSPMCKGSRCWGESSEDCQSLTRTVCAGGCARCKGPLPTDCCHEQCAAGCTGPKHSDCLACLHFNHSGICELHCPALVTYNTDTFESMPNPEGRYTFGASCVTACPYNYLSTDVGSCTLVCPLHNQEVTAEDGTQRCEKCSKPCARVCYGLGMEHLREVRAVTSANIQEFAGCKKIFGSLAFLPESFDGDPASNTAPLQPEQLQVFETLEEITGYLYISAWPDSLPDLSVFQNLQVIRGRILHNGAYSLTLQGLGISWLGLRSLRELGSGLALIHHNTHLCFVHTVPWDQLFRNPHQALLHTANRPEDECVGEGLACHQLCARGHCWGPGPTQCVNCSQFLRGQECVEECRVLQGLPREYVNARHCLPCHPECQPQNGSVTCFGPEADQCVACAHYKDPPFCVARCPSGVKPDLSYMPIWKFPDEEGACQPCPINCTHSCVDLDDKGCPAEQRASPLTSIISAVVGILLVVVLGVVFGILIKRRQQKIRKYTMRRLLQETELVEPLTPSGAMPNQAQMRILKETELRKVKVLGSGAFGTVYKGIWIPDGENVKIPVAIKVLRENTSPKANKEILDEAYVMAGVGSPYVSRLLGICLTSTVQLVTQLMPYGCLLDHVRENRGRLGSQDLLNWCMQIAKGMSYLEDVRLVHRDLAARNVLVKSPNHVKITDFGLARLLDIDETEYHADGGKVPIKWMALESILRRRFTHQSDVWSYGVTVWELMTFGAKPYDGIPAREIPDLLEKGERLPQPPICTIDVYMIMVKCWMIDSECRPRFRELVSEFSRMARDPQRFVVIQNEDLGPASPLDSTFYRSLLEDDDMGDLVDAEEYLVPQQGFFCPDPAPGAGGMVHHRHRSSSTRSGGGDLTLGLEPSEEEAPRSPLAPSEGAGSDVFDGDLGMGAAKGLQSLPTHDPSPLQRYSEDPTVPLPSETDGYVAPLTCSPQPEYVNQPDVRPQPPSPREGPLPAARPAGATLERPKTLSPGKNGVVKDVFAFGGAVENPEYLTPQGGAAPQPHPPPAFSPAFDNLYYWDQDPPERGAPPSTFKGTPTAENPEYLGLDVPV
Description: (§2) The HER2/EGFR/VEGFR2 assay kit is designed to measure HER2/EGFR/VEGFR-2 inhibitory activity for screening and profiling applications, using Kinase-Glo® MAX as a detection reagent. The HER2/EGFR/VEGFR2 assay kit comes in a convenient 96-well format, with enough purified recombinant HER2/EGFR/VEGFR2 enzyme, HER2/EGFR/VEGFR2 substrate, ATP and kinase buffer 1 for 100 enzyme reactions. […] […] The quinazolin-4(3H)-ones were diluted in 10% DMSO and 5 μl of the dilution was added to a 50 μl reaction so that the final concentration of DMSO was 1% in all of the reactions. All of the enzymatic reactions were conducted at 30 °C for 40 min. The 50 μl reaction mixture contained 40 mM Tris, pH 7.4, 10 mM MgCl2, 0.1 mg/mL BSA, 1 mM DTT, 10 mM ATP, kinase substrate and the enzyme HER2 / EGFR / VEGFR2. After the enzymatic reaction, 50 μl of Kinase-Glo® MAX luminescence kinase assay solution was added to each reaction and the plates were incubated for 5 min at room temperature. Luminescence signal was measured using a Bio Tek Synergy 2 microplate reader (For detail enzyme assay protocol and the results, please see supplementary data).

[5] = target: T3, EGFR (Homo sapiens, UniProt P00533); assay: EGFR kinase assay kit, Kinase-Glo MAX luminescence; assay type: biochemical; settings: for inhibition at 0.01 µM / inhibition at 0.1 µM / inhibition at 1 µM / inhibition at 10 µM: one experimental data; for IC50: mean ± SD of triplicate
T3 construct: purchased #40321
T3 sequence (P00533 25-1210): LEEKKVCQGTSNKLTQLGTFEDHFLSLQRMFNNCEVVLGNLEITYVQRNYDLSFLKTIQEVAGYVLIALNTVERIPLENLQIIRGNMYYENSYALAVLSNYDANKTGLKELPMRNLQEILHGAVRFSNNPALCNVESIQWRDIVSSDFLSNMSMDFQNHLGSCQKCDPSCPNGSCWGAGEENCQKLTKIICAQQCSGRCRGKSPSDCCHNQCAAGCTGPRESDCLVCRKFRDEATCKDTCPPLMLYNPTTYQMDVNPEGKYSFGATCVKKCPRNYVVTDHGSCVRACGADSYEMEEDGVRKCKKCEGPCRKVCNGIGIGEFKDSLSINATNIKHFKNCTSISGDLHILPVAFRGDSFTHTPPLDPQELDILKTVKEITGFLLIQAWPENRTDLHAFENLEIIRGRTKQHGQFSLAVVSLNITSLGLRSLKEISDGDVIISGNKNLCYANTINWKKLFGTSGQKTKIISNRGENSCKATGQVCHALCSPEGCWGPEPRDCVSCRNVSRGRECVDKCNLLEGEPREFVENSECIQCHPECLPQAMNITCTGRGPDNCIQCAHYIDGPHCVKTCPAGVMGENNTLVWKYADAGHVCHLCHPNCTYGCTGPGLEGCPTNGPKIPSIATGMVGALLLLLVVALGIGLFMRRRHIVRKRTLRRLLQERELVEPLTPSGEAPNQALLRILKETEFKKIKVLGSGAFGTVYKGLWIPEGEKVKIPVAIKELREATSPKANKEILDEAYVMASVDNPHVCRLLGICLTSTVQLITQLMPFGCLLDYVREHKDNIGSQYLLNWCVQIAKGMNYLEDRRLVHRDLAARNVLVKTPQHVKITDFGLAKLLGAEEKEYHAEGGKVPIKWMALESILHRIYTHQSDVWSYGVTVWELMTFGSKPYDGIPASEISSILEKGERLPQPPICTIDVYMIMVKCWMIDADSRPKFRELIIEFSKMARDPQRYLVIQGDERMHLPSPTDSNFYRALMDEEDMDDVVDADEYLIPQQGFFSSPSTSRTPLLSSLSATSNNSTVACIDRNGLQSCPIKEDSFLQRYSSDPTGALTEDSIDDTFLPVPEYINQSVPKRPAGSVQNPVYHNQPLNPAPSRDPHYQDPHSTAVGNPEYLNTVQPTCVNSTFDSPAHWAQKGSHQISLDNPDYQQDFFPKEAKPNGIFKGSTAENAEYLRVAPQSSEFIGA
Description: as §2

[6] = target: T4, VEGFR2 (Homo sapiens, UniProt P35968); assay: VEGFR2 kinase assay kit, Kinase-Glo MAX luminescence; assay type: biochemical; settings: for inhibition at 0.01 µM / inhibition at 0.1 µM / inhibition at 1 µM / inhibition at 10 µM: one experimental data, read-out: % Inhibition VEGFR-2; for IC50: mean ± SD of triplicate
T4 construct: purchased #40325
T4 sequence (P35968 20-1356): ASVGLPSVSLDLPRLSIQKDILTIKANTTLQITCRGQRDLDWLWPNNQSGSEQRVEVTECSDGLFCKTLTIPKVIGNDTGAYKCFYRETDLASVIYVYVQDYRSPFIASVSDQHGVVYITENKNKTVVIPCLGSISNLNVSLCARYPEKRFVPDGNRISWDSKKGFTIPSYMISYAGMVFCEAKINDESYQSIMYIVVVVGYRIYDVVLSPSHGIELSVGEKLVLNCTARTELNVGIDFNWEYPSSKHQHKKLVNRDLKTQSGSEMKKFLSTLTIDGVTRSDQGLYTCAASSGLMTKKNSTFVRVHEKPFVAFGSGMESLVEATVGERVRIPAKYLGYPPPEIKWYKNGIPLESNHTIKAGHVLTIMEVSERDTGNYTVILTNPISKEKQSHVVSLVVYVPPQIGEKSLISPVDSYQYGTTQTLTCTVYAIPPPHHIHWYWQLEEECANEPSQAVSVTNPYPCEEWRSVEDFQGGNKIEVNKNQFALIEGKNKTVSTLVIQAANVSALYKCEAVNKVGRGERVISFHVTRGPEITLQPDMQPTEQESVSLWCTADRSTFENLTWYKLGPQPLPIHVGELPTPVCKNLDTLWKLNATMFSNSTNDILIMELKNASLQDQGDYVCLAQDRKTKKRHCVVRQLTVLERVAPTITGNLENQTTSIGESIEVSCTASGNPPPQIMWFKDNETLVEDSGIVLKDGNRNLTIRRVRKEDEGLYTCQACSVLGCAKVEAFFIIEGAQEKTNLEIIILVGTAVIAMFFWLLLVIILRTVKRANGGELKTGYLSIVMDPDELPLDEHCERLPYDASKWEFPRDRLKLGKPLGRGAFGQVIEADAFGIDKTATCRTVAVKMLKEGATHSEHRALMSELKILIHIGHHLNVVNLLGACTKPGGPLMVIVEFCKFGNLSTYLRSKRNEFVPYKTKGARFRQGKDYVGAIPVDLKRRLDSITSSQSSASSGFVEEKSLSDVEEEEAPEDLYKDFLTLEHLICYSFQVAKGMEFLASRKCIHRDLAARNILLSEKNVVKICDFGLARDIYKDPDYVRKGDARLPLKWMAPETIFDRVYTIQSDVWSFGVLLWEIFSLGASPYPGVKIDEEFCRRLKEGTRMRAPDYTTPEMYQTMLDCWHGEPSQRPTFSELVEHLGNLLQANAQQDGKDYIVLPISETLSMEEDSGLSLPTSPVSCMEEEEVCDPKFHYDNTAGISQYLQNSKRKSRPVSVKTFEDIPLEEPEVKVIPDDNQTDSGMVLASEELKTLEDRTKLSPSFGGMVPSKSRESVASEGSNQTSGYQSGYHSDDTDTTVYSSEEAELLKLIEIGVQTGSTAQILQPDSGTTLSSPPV
Description: as §2

[7] = target: T1, CDK2/CyclinA2; assay: CDK2 Assay Kit, Kinase-Glo MAX luminescence; assay type: biochemical; settings: mean ± SD of triplicate

Row | Structure (SMILES) | IC50 [1] [nM] | IC50 [2] [nM] | inhibition at 0.01 µM [3] [%] | inhibition at 0.1 µM [3] [%] | inhibition at 1 µM [3] [%] | inhibition at 10 µM [3] [%] | inhibition at 0.01 µM [4] [%] | inhibition at 0.1 µM [4] [%] | inhibition at 1 µM [4] [%] | inhibition at 10 µM [4] [%] | IC50 [4] [nM] | inhibition at 0.01 µM [5] [%] | inhibition at 0.1 µM [5] [%] | inhibition at 1 µM [5] [%] | inhibition at 10 µM [5] [%] | IC50 [5] [nM] | inhibition at 0.01 µM [6] [%] | inhibition at 0.1 µM [6] [%] | inhibition at 1 µM [6] [%] | inhibition at 10 µM [6] [%] | further results
1 | NNC(=O)CSc1nc2c(F)cc(F)cc2c(=O)n1Cc1ccccc1 [3h, 2-((3-Benzyl-6,8-difluoro-4-oxo-3,4-dihydroquinazolin-2-yl)thio)acetohydrazide] | 840 ± 50 | 630 ± 160 | 3.74 | 19.9 | 70.2 | 82.1 | 2.73 | 44.4 | 77.3 | 89.8 | 248 ± 23 | 8.4 | 38 | 29.2 | 87.2 | 128 ± 16 | 3.17 | 19.5 | 33.4 | 33.1 | IC50 [6]: 1370 ± 26 nM; melting point: 185 to 186 °C; IC50 [7]: 257 ± 16 nM
2 | Cc1cc(Cl)cc2c(=O)n(Cc3ccccc3)c(SCC(=O)NN)nc12 [3j] | 200 ± 20 | 220 ± 30 | 8.13 | 42.8 | 38.4 | 84 | 2.33 | 39.5 | 72 | 92.2 | 222 ± 12 | 18.7 | 48.8 | 81 | 89.9 | 371 ± 14 | 1.98 | 22.3 | 41.1 | 74.4 | IC50 [6]: 3085 ± 16 nM; melting point: 216 to 220 °C; IC50 [7]: 473 ± 33 nM

— PMC8462848, “Quinazolin-4(3H)-one based potential multiple tyrosine kinase inhibitors with excellent cytotoxicity” (Journal of Enzyme Inhibition and Medicinal Chemistry, 2021)
